Results as given in PubChem BioAssay (NCI).
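Five compound concentrations were applied to cells in 96-well plates for 48 hours; endpoints were derived by simple linear interpolation of the resulting dose-response curve. The concentration for full growth arrest is given as TGI.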

Experiments:
Assay in all cases: inhibition of tumour cell growth, NCI panel, 48 h
[1] = tested on: K-562 leukemia
[2] = tested on: T-47D breast
[3] = tested on: MDA-N
[4] = tested on: OVCAR-4 ovarian
[5] = tested on: DU-145 prostate
[6] = tested on: EKVX NSCLC
[7] = tested on: HOP-92 NSCLC
[8] = tested on: HL-60(TB) leukemia
[9] = tested on: OVCAR-8 ovarian
[10] = tested on: NCI-H522 lung

Measured: TGI

COC(=O)C1(CCCCl)CCCN1C(=O)OC(C)(C)C (configuration not stated)
> 100 µM: [1] | [2] | [3] | [4] | [5] | [6]

O=C(c1c(F)c(F)c(F)c(F)c1F)n1c(=S)n(C(=O)c2c(F)c(F)c(F)c(F)c2F)c2ccccc21
51.5 µM: [1]
45.6 µM: [8]
not listed: [6] | [10]
> 100 µM: all other assays above

Cc1cc2nnn(C3CCCCO3)c2cc1C (configuration not stated)
not listed: [7] | [8]
> 100 µM: all other assays above

CCCCCCC1OC23OC1CCC2C(O)CCC3O (configuration not stated)
not listed: [2] | [3] | [7]
> 100 µM: all other assays above

CCN(C(=O)N[C@@H](CC(C)C)C(=O)NCC(=O)OC)c1ccccc1
not listed: [8]
> 100 µM: all other assays above

CCOC(=O)c1cn(-c2ccc([N+](=O)[O-])cc2)c(=S)n2c1nc1ccccc12
57.1 µM: [7]
not listed: [8] | [10]
> 100 µM: all other assays above

COc1cc(Nc2nc3cc(C)ccc3nc2-c2ccccc2)cc(OC)c1OC
> 100 µM: [1] | [7] | [4] | [6] | [9]
90.6 µM: [10]
54.5 µM: [8]

O=c1oc2ccccc2c(-c2ccc(O)cc2)c1Oc1ccccc1
26.6 µM: [7]
> 100 µM: [1] | [2] | [8]
> 31.6 µM: [9]
49.9 µM: [6]
58.5 µM: [3]
> 63.9 µM: [5]
> 56.7 µM: [4]

C(=NC12CC3CC(CC(C3)C1)C2)C1CCCCC1
not listed: [2]
> 100 µM: all other assays above

COc1ccc(OC)c(/C=C2/C(=O)N=C(NC(C)=O)N2C)c1
not listed: [1] | [2]
> 100 µM: all other assays above

COc1cc(Nc2cc(Cl)cc(Cl)c2)nc(N)n1
39.6 µM: [9]
35.9 µM: [10]
48.6 µM: [5]
62.3 µM: [3]
> 100 µM: [1]
32.1 µM: [7]
54 µM: [4]
92.5 µM: [2]
69 µM: [6]

CCOc1ccc(NC(=O)C(=O)C(/C(=N/N)C(=O)OC)c2nc3ccc([N+](=O)[O-])cc3[nH]c2=O)cc1 (configuration not stated)
not listed: [8]
> 100 µM: all other assays above
